Results taken from US20070009593A1, “Methods of treating cancer” (Indianan University Advanced Research, priority 2002, published 2007).
Each block holds one compound with its values, some of them ahead of it. Peptide text beside a SMILES is read from it. * marks the point of attachment. Cbz = O=C(OCc1ccccc1)*

Columns and labels:
[1] = tested on: Caco 2 cells; assay: proliferation / combination assay in colon cancer cells; format: cell-based; conditions: Homo sapiens; Caco 2, single agent; read-out: IC50
[2] = tested on: A549; assay: MTT assay, NSCLC cell line; format: cell-based; conditions: Homo sapiens; for IC80: A549, MTT assay, single agent; for IC50: MTT assay
[3] = tested on: H522; assay: MTT assay, NSCLC cell line; format: cell-based; conditions: Homo sapiens; for IC50: NCI-H522; for IC80: NCI-H522, single agent
[4] = tested on: H460; assay: MTT assay, NSCLC cell line; format: cell-based; conditions: Homo sapiens; for IC50: NCI-H460; for IC80: NCI-H460, single agent
[5] = tested on: H23; assay: MTT assay, NSCLC cell line; format: cell-based; conditions: Homo sapiens, NCI-H23
[6] = tested on: MDA-231; assay: MTT assay, breast cancer line; format: cell-based; conditions: Homo sapiens, MDA-MB-231; MDA-231, 48 hours, MTT, single agent; read-out: IC50
Description: The drugs were tested together at the ratio of their IC50 as single agents, over a 4-log range of concentrations. […] Viable cell number was measured by MTT assay.

[7] = target: T1, chymotryptic active site of the proteasome (ZGGL-AMC cleavage) (Homo sapiens, UniProt P28074); assay: fluorometric assay of ZGGL-AMC cleavage by Caco 2 cells; format: cell-based; conditions: for ZGGL-AMC cleavage: Caco 2 cells (DMSO control 0.287)
T1 construct: Fluorometric assay of ZGGL-AMC cleavage by Caco 2 cells; endogenous in cells; host or cells: Caco 2

[8] = tested on: HUVEC; assay: HUVEC cell spreading assay; format: cell-based, human; conditions: 100 μM, same spreading conditions
Description: Cells were fixed in 3.7% formaldehyde in PBS, blocked and stained with Oregon-green phalloidin 514 (Molecular Probes), and then digitally photographed using a Zeiss inverted fluorescence microscope equipped with a CCD camera. Cell areas were measured on the digital images using the Spot program (Diagnostic Imaging).

[9] = tested on: A549; assay: cell survival at 60 hours, amprenavir; format: cell-based; conditions: A549, 60 hours, FIG. 4
Description: (§1) Three cancer cell lines (A549, H460, and H23) where treated with varying doses of amprenavir.

[10] = tested on: H23; assay: cell survival at 60 hours, amprenavir; format: cell-based; conditions: H23, 60 hours, FIG. 4
Description: as §1

[11] = tested on: H460; assay: cell survival at 60 hours, amprenavir; format: cell-based; conditions: H460, 60 hours, FIG. 4
Description: as §1

IC50 [1]: 60 µM
Compound: Cc1ccc(-c2cc(C(F)(F)F)nn2-c2ccc(S(N)(=O)=O)cc2)cc1 [Celecoxib, celecoxib]

IC50 [2]: 0.0045 µM | IC50 [3]: 0.0049 µM | IC50 [4]: 0.005 µM | IC50 [6]: 0.01 µM | IC50 [1]: 0.005 µM
Compound: CC(=O)O[C@@]12CO[C@@H]1C[C@H](O)[C@@]1(C)C(=O)[C@H](O)C3=C(C)[C@@H](OC(=O)[C@H](O)[C@@H](NC(=O)OC(C)(C)C)c4ccccc4)C[C@@](O)([C@@H](OC(=O)c4ccccc4)[C@H]21)C3(C)C [Docetaxel, docetaxel]
IC80 [2]: > 0.05 µM | IC80 [3]: > 0.05 µM | IC80 [4]: > 0.05 µM | IC50 [5]: 0.0055 µM

IC50 [1]: 28 µM
Compound: O=c1[nH]cc(F)c(=O)[nH]1 [Formula 5-FU, 5-fluorouracil]

blocks substrate cleavage (ZGGL-AMC) ([7]; 5 μM, Caco 2 cells): over 95% | ZGGL-AMC cleavage ([7]; 5 μM): 0.022 pmol·s^1− 10^6 cells
Compound: CC(=O)N[C@@H](CSC(=O)[C@]1([C@@H](O)C(C)C)NC(=O)[C@H](C)[C@@H]1O)C(=O)O [Lactacystin, lactacystin]

Compound: CC(C)[C@H](NC(=O)OCc1ccccc1)C(=O)N[C@H](C=O)Cc1ccccc1 [MDL 28, 170] (Cbz-Val-Phe-aldehyde)
blocked spreading [8]: 21%

ZGGL-AMC cleavage ([7]; 50 μM): 0.187 pmol·s^1− 10^6 cells | blocks ZGGL-AMC cleavage ([7]; Caco 2 cells (50 μM in table)): less than 30%
Compound: O=C(O)/C(S)=C/c1ccc(I)cc1 [PD150606]

IC50 [2]: 0.09 µM | IC50 [3]: 0.105 µM | IC50 [4]: 0.12 µM | IC50 [1]: 0.4 µM
Compound: CC(=O)O[C@H]1C(=O)[C@@]2(C)[C@H]([C@H](OC(=O)c3ccccc3)[C@]3(O)C[C@H](OC(=O)[C@H](O)[C@@H](NC(=O)c4ccccc4)c4ccccc4)C(C)=C1C3(C)C)[C@]1(OC(C)=O)CO[C@@H]1C[C@@H]2O [Paclitaxel, paclitaxel]
IC80 [2]: > 0.2 µM | IC80 [3]: > 0.2 µM | IC80 [4]: > 0.2 µM | IC50 [5]: 0.11 µM

Compound: amprenavir
IC50 [9]: 4 to 5 µM | IC50 [10]: 4 to 5 µM | IC50 [11]: 4 to 5 µM
